Test results published in publication PMC10788917 (Journal of Medicinal Chemistry, 2023).
Substitutions are numbered along the chain they refer to.

Legend:
Assay in all cases: HDAC8 mutant biochemical assay
[1] = target: T1, HDAC8 Cys102Ser/Cys153Ser (Homo sapiens, UniProt Q9BY41, C102S/C153S); details: read-out: IC50 [μM] @ 100 nM HDAC8: A Cys102Ser/Cys153Ser, 1 h preincubation
T1 construct: made in house
T1 sequence (Q9BY41 1-377 C102S/C153S): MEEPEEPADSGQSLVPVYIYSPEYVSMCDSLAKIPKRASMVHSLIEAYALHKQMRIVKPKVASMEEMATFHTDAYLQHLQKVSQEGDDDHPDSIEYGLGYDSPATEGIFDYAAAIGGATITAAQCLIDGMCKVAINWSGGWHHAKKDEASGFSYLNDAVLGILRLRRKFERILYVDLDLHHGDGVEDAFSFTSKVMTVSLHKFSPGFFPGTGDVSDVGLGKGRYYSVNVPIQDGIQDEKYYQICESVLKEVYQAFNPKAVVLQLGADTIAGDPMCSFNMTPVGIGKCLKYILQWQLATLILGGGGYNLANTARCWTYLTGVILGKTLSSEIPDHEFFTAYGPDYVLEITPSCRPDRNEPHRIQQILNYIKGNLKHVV
Procedure: (§1) HDAC8 mutant variants were generated, produced, and further purified as described previously.[32] Cysteines 28 and 314 were exchanged with serine using the following primer pairs: HD8_C28S_for, […]; HD8_C28S_rev, […]; HD8_C314S_for, […]; HD8_C314S_rev, […].
(§2) The enzyme activity assay was performed in assay buffer [25 mM Tris-HCl (pH 8.0), 50 mM NaCl, and 0.001% (v/v) Pluronic F-68] in black half-area 96-well microplates (Greiner Bio-One). For the initial screening, 10 nM HDAC8 was preincubated with the indicated compounds at 250 μM for 2 h at 30 °C. […] The reaction was initiated by the addition of 20 μM Boc-Lys(TFA)-AMC (Bachem). After substrate conversion at 30 °C for 15 min for HDAC8 and 1 h for HDAC8 mutants and HDAC4, the reaction was stopped by adding 1.67 μM suberoylanilide trifluoromethylketone (SATFMK). The deacetylated substrate was cleaved with 0.42 mg/mL trypsin to release fluorescent 7-amino-4-methylcoumarin (AMC), which was detected with a microplate reader (PHERAstar FS […]) with fluorescence excitation at 360 nm and emission at 460 nm. IC50 values were calculated by generating dose–response curves in GraphPad Prism 6 and fitting those to a four-parameter logistic model.

[2] = target: T2, HDAC8 Cys102Ser/Cys153Ser/Cys275Ser (Homo sapiens, UniProt Q9BY41, C102S/C153S/C275S); details: read-out: IC50 [μM] @ 100 nM HDAC8: F Cys102Ser/Cys153Ser/Cys275Ser, 1 h preincubation
T2 construct: made in house
T2 sequence (Q9BY41 1-377 C102S/C153S/C275S): T1 sequence (Q9BY41 1-377 C102S/C153S) with C275S
Procedure: as §1, §2

[3] = target: T3, HDAC8 Cys102Ser/Cys153Ser/Cys28Ser (Homo sapiens, UniProt Q9BY41, C102S/C153S/C28S); details: read-out: IC50 [μM] @ 100 nM HDAC8: B Cys102Ser/Cys153Ser/Cys28Ser, 1 h preincubation
T3 construct: made in house
T3 sequence (Q9BY41 1-377 C28S/C102S/C153S): T1 sequence (Q9BY41 1-377 C102S/C153S) with C28S
Procedure: as §1, §2

[4] = target: T4, HDAC8 Cys102Ser/Cys153Ser/Cys314Ser (Homo sapiens, UniProt Q9BY41, C102S/C153S/C314S); details: read-out: IC50 [μM] @ 100 nM HDAC8: H Cys102Ser/Cys153Ser/Cys314Ser, 1 h preincubation
T4 construct: made in house
T4 sequence (Q9BY41 1-377 C102S/C153S/C314S): T1 sequence (Q9BY41 1-377 C102S/C153S) with C314S
Procedure: as §1, §2

SMILES	IC50 [1]	IC50 [2]	IC50 [3]	IC50 [4]
C[n+]1ccccc1I [A3+]	59 ± 4 µM	24 ± 3 µM	> 130 µM	92 ± 10 µM
C[n+]1cncc(Br)c1 [F2+]	29 ± 1 µM	19 ± 4 µM	> 130 µM	74 ± 11 µM
C#Cc1nccc[n+]1C [D6+]	> 130 µM	107 ± 10 µM	> 130 µM	
C[n+]1ccc(I)cc1 [C3+]	68 ± 5 µM	17 ± 1 µM	> 130 µM	14 µM
C#Cc1c[n+](C)ccn1 [G6+]	97 ± 34 µM	64 ± 16 µM	106 ± 10 µM	> 130 µM
C[n+]1cccnc1Cl [D1+]	60 ± 9 µM	13 ± 3 µM	> 130 µM	> 130 µM

Compounds with a lower IC50 [1], results first:

IC50 [1]	IC50 [2]	IC50 [3]	IC50 [4]	SMILES
14 ± 1 µM	16 ± 2 µM	62 ± 3 µM	20 ± 1 µM	C[n+]1cccnc1I [D3+]
16 ± 3 µM	15 µM	> 130 µM	19 ± 2 µM	C[n+]1cncc(I)c1 [F3+]
23 ± 3 µM	35 ± 14 µM	> 130 µM	> 130 µM	C[n+]1cccnc1Br [D2+]
14 ± 1 µM	4.2 ± 0.3 µM	67 ± 6 µM	100 ± 14 µM	C#Cc1cc[n+](C)cc1 [C6+]
